Laboratory results from patent publication US20250018049A1, “COMPOUNDS FOR DEGRADING CYCLIN-DEPENDENT KINASE 2 VIA UBIQUITIN PROTEOSOME PATHWAY” (NIKANG THERAPEUTICS, INC., priority 2020, published 2025).
pIC50: −log10 of the molar value.

Legend:
Format in all cases: cell-based
CDK2 [1] = target: T1, CDK2 (Homo sapiens, UniProt P24941); assay: NanoBRET CDK2 engagement assay; design: expressed in transfected cells; conditions: OVCAR3 cells with stable CDK2-Luciferase vector, 24 hours treatment
In short: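 OVCAR3 cells stably expressing CDK2-luciferase, in Opti-MEM with 1% FBS, treated 24 h at 37° C with compound from 3 μM in ½-log steps to 0.3 nM; NanoBRET tracer present for final 2 h. Donor/acceptor emission read; engagement normalized to DMSO as 100% signal, IC50 by curve fit.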

CDK2 [2] = target: T1, CDK2; assay: Phospho-Rb HTRF measurement in OVCAR3 cells (inhibition of CDK2); design: High-Throughput Measurement of Cellular Endogenous CDK2; endogenous in cells; host or cells: OVCAR3; conditions: pRB(S807/811) assay, 24 h compound treatment
CDK2 [3] = target: T1, CDK2; assay: CDK2 HTRF assay (cellular endogenous CDK2 level); design: High-Throughput Measurement of Cellular Endogenous CDK2; endogenous in cells; host or cells: OVCAR3; conditions: OVCAR-3; OVCAR3 cells, 24 hours, 0.3 to 10,000 nM; read-out: max degradation of CDK2
Method: Effects of compounds on cellular CDK2 level can be monitored by a high-throughput HTRF assay or traditional Western Blot assay.
To determine half maximal degradation concentration (DC50) values of compounds, cellular CDK2 level was measured in 96-well format using HTRF total CDK2 cellular kit (Cat #64CDK2TPEG) from Cisbio.
On Day 1, OVCAR3 cells were seeded into 96-well tissue-culture treated plates at 20,000 cells/well in 200 μL and incubated overnight at 37° C. in CO2 atmosphere. On Day 2 cells were treated with compounds at concentration ranging from 0.3 to 10,000 nM using HP D300 digital dispenser. 24 hours after compound treatment, cell culture media was removed by flicking the plate and tapping the plate against clean paper towel. Immediately 30 μL 1× lysis buffer was supplemented from the kit and the plate was incubated at room temperature on shaker for 30 min. After homogenization by pipetting up and down, 8 μL cell lysate from 96-well cell culture plate was transferred to 384-well small volume white detection plate. 2 μL premixed detection solution was added and the plate was covered with sealer. To prepare the detection solution, d2 conjugated-CDK2 antibody and Eu-cryptate conjugated CDK2 antibody were diluted into detection buffer following manufacturer's instruction. Detection plates were incubated overnight at room temperature and read on ClarioStar (BMG Labtech) in TR-FRET mode (665 nM and 620 nM). The TR-FRET ratio (665 nM/620 nM) was plotted against the compound concentration and normalized to DMSO controls. Half maximal degradation concentration (DC50) values were calculated with a four-parameter logistic fit using GraphPad Prism (version 8; La Jolla, CA). FIG. 1 provides a dose-response curve of Compound 1 in Compound Table I in cellular CDK2 HTRF assay. IC50 in FIG. 1 is the same as DC50. Compounds 1, 13, 16, 22, 23, 28, 34, 35, 36, 37, 38, 39, 42, 48, 50, 51, 53, 54, 55, 56, 57, 58, 59, 60, 61, 62, 63, 65, 66, 68, 69, 70 were tested and max degradation of CDK2 observed was from about 35% to about 90%.

Row | pIC50 (CDK2 [1]) | pIC50 (CDK2 [2]) | Dmax (CDK2 [3]) [%] | SMILES
1 | 6.53 | 7.61 | 35 to 90 | O=C1CCC(N2Cc3cc(N4CCN(Cc5cccc(S(=O)(=O)N6CCC(Nc7ncc8ccc(=O)n(C9CCCC9)c8n7)CC6)c5)CC4)c(F)cc3C2=O)C(=O)N1 (stereo not drawn) [Compound 42, 3-(5-(4-(3-((4-((8-cyclopentyl-7-oxo-7,8-dihydropyrido[2,3-d]pyrimidin-2-yl)amino)-piperidin-1-yl)sulfonyl)benzyl)piperazin-1-yl)-6-fluoro-1-oxoisoindolin-2-yl)piperidine-2,6-dione]
2 | 6.49 | 6.31 | 35 to 90 | Cn1c(=O)n(C2CCC(=O)NC2=O)c2cccc(CCCOC3CCN(S(=O)(=O)N4CCC(Nc5ncc6ccc(=O)n(C7CCCC7)c6n5)CC4)CC3)c21 (stereo not drawn) [Compound 16, 3-(4-(3-((1-((4-((8-cyclopentyl-7-oxo-7,8-dihydropyrido[2,3-d]pyrimidin-2-yl)amino)-piperidin-1-yl)sulfonyl)piperidin-4-yl)oxy)propyl)-3-methyl-2-oxo-2,3-dihydro-1H-benzo[d]-imidazol-1-yl)piperidine-2,6-dione]
3 | 6.62 | 7.17 | 35 to 90 | O=C1CCC(N2Cc3cc(N4CCN(Cc5cccc(S(=O)(=O)N6CCC(Nc7ncc8cc(C(F)F)c(=O)n(C9CCCC9)c8n7)CC6)c5)CC4)ccc3C2=O)C(=O)N1 (stereo not drawn) [Compound 56, 3-(5-(4-(3-((4-((8-cyclopentyl-6-(difluoromethyl)-7-oxo-7,8-dihydropyrido[2,3-d]pyrimidin-2-yl)amino)piperidin-1-yl)sulfonyl)benzyl)piperazin-1-yl)-1-oxoisoindolin-2-yl)piperidine-2,6-dione]
4 | 6.72 | 7.59 | 35 to 90 | O=C1CCC(N2Cc3cc(C4CN(Cc5cccc(S(=O)(=O)N6CCC(Nc7ncc8ccc(=O)n(C9CCCC9)c8n7)CC6)c5)C4)ccc3C2=O)C(=O)N1 (stereo not drawn) [Compound 37, 3-(5-(1-(3-((4-((8-cyclopentyl-7-oxo-7,8-dihydropyrido[2,3-d]pyrimidin-2-yl)amino)-piperidin-1-yl)sulfonyl)benzyl)azetidin-3-yl)-1-oxoisoindolin-2-yl)piperidine-2,6-dione]
5 | 5.76 | 5.19 | 35 to 90 | O=C1CCC(N2C(=O)c3cc(F)c(N4CCN(Cc5cccc(S(=O)(=O)N6CC[C@H](Nc7ncc8ccc(=O)n(C9CCCC9)c8n7)[C@@H](F)C6)c5)CC4)cc3C2=O)C(=O)N1 (stereo partly drawn) [Compound 65, 5-(4-(3-(((3S,4S)-4-((8-cyclopentyl-7-oxo-7,8-dihydropyrido[2,3-d]pyrimidin-2-yl)amino)-3-fluoropiperidin-1-yl)sulfonyl)benzyl)piperazin-1-yl)-2-(2,6-dioxopiperidin-3-yl)-6-fluoro-isoindoline-1,3-dione]
6 | 6.14 | 6.88 | 35 to 90 | O=C1CCC(N2C(=O)c3cc(F)c(N4CCN(Cc5cccc(S(=O)(=O)N6CCC(Nc7ncc8ccc(=O)n(C9CCCC9)c8n7)CC6)c5)CC4)cc3C2=O)C(=O)N1 (stereo not drawn) [Compound 48, 5-(4-(3-((4-((8-cyclopentyl-7-oxo-7,8-dihydro-pyrido[2,3-d]pyrimidin-2-yl)amino)piperidin-1-yl)sulfonyl)-benzyl)piperazin-1-yl)-2-(2,6-dioxo-piperidin-3-yl)-6-fluoroisoindoline-1,3-dione]
7 | 6.55 | 7.66 | 35 to 90 | O=C1CCC(N2Cc3cc(N4CC5(CN(Cc6cccc(S(=O)(=O)N7CCC(Nc8ncc9ccc(=O)n(C%10%11CC(C%10)C%11)c9n8)CC7)c6)C5)C4)ccc3C2=O)C(=O)N1 (stereo not drawn) [Compound 62, 3-(5-(6-(3-((4-((8-(bicyclo[1.1.1]pentan-1-yl)-7-oxo-7,8-dihydropyrido[2,3-d]pyrimidin-2-yl)-amino)piperidin-1-yl)sulfonyl)benzyl)-2,6-diazaspiro[3.3]heptan-2-yl)-1-oxoisoindolin-2-yl)-piperidine-2,6-dione]
8 | 6.83 | 7.50 | 35 to 90 | O=C1CCC(N2Cc3cc(N4CC(N5CCN(c6cccc(S(=O)(=O)N7CCC(Nc8ncc9ccc(=O)n(C%10CCCC%10)c9n8)CC7)c6)CC5)C4)ccc3C2=O)C(=O)N1 (stereo not drawn) [Compound 69, 3-(5-(3-(4-(3-((4-((8-cyclopentyl-7-oxo-7,8-dihydropyrido[2,3-d]pyrimidin-2-yl)amino)-piperidin-1-yl)sulfonyl)phenyl)piperazin-1-yl)azetidin-1-yl)-1-oxoisoindolin-2-yl)piperidine-2,6-dione]
9 | 7.37 | 7.95 | 35 to 90 | O=C1CCC(N2Cc3cc(N4CCC(CN5CCN(c6cccc(S(=O)(=O)N7CCC(Nc8ncc9ccc(=O)n(C%10CCCC%10)c9n8)CC7)c6)CC5)CC4)ccc3C2=O)C(=O)N1 (stereo not drawn) [Compound 38, 3-(5-(4-((4-(3-((4-((8-cyclopentyl-7-oxo-7,8-dihydropyrido[2,3-d]pyrimidin-2-yl)amino)-piperidin-1-yl)sulfonyl)phenyl)piperazin-1-yl)-methyl)piperidin-1-yl)-1-oxoisoindolin-2-yl)-piperidine-2,6-dione]
10 | 6.77 | 7.30 | 35 to 90 | O=C1CCC(N2Cc3cc(N4CCC5(CC4)CN(Cc4cccc(S(=O)(=O)N6CCC(Nc7ncc8ccc(=O)n(C9CCCC9)c8n7)CC6)c4)C5)ccc3C2=O)C(=O)N1 (stereo not drawn) [Compound 57, 3-(5-(2-(3-((4-((8-cyclopentyl-7-oxo-7,8-dihydro-pyrido[2,3-d]pyrimidin-2-yl)amino)piperidin-1-yl)sulfonyl)benzyl)-2,7-diazaspiro[3.5]nonan-7-yl)-1-oxoisoindolin-2-yl)piperidine-2,6-dione]
11 | 7.03 | 6.31 | 35 to 90 | Cn1c(=O)n(C2CCC(=O)NC2=O)c2cccc(C3CCN(C4CCN(c5cccc(S(=O)(=O)N6CCC(Nc7ncc8ccc(=O)n(C9CCCC9)c8n7)CC6)c5)CC4)CC3)c21 (stereo not drawn) [Compound 39, 3-(4-(1′-(3-((4-((8-cyclopentyl-7-oxo-7,8-dihydro-pyrido[2,3-d]pyrimidin-2-yl)amino)piperidin-1-yl)sulfonyl)phenyl)-[1,4′-bipiperidin]-4-yl)-3-methyl-2-oxo-2,3-dihydro-1H-benzo[d]imidazol-1-yl)piperidine-2,6-dione]
12 | 6.58 | 6.75 | 35 to 90 | O=C1CCC(N2C(=O)c3cc(F)c(N4CCN(Cc5cccc(S(=O)(=O)N6CC[C@H](Nc7ncc8ccc(=O)n(C9CCCC9)c8n7)[C@H](F)C6)c5)CC4)cc3C2=O)C(=O)N1 (stereo partly drawn) [Compound 63, 5-(4-(3-(((3R,4S)-4-((8-cyclopentyl-7-oxo-7,8-dihydropyrido[2,3-d]pyrimidin-2-yl)amino)-3-fluoropiperidin-1-yl)sulfonyl)benzyl)piperazin-1-yl)-2-(2,6-dioxopiperidin-3-yl)-6-fluoroiso-indoline-1,3-dione]
13 | 7.34 | 6.97 | 35 to 90 | O=C1CCC(N2Cc3cc(CN4CCC(Oc5cccc(S(=O)(=O)N6CCC(Nc7ncc8ccc(=O)n(C9CCCC9)c8n7)CC6)c5)CC4)ccc3C2=O)C(=O)N1 (stereo not drawn) [Compound 66, 3-(5-((4-(3-((4-((8-cyclopentyl-7-oxo-7,8-dihydropyrido[2,3-d]pyrimidin-2-yl)amino)-piperidin-1-yl)sulfonyl)phenoxy)-piperidin-1-yl)-methyl)-1-oxoisoindolin-2-yl)piperidine-2,6-dione]

Row | SMILES | pIC50 (CDK2 [1]) | pIC50 (CDK2 [2]) | Dmax (CDK2 [3]) [%]
14 | O=C1CCC(N2Cc3cc(N4CC5CCC(C4)N5Cc4cccc(S(=O)(=O)N5CCC(Nc6ncc7ccc(=O)n(C8CCCC8)c7n6)CC5)c4)ccc3C2=O)C(=O)N1 (stereo not drawn) [Compound 54, 3-(5-(8-(3-((4-((8-cyclopentyl-7-oxo-7,8-dihydro-pyrido[2,3-d]pyrimidin-2-yl)amino)piperidin-1-yl)sulfonyl)benzyl)-3,8-diazabicyclo[3.2.1]octan-3-yl)-1-oxoisoindolin-2-yl)piperidine-2,6-dione] | 6.67 | 7.14 | 35 to 90
